Source: paper PMC5575254, “An allosteric ligand-binding site in the extracellular cap of K2P channels” (Nature Communications, 2017)

Tests used:
[1] = test system: mice; test: Acute administration behavioral tests; assay type: in vivo, Male C57BL/6 mice; conditions: single i.p. injection, tests 30 min after administration
Protocol: Male C57BL/6 mice, aged 8 weeks (weighing 18–20 g) were used for acute and chronic drug administration and behavioral tests. The mice were housed four per cage under a 12-h light–dark cycle. Mice were raised under stable conditions with food and water ad libitum. All animal studies and experimental procedures were approved by the Animal Care Committees of the Shanghai Institute of Materia Medica, Chinese Academy of Sciences, and experiments were carried out in accordance with EU Directive 2010/63/EU on the protection of animals used for scientific purposes. […] The mice were removed to a sound-attenuating testing room 3–4 h before testing. […]
The apparatus was made of opaque Plexiglas (50 cm × 50 cm) and placed in a room with sound proof. […] The mice were randomly placed into the center of the sheet following 30 min drugs administration and their behaviors in the open field arena were recorded for 10 min using the camera. […] Locomotor activity and exploratory behavior were measured in the open field test and each animal was placed individually at the center for a 10 min session. The total distance moved and the number of rearing was measured in this experiment. […]
The mice were performed under normal light. […] The duration of immobility defined as floating or remaining motionless was assessed. […]

[2] = test system: T1, TREK-1; test: Outside-out and inside-out patch recordings of TREK-1; assay type: cell-based, human; conditions: +80 mV
T1 construct: expressed in transfected cells; host or cells: CHO cells, transient transfection
Protocol: All electrophysiological recordings were obtained using patch-clamp recordings in two different configurations: (1) whole cell for macroscopic current dose–response curves; and (2) outside-out and inside-out for macroscopic currents recordings.
All patch-clamp recordings were conducted 36–96 h after transfection with an Axopatch-200B amplifier (Molecular Devices) at room temperature (23–25 °C). The microelectrodes fashioned from 1.5 mm thin-walled borosilicate glass with filament were pulled from Flaming/Brown type micropipette puller (P-97; SUTTER INSTRUMENT) with the resistances of 3–7 MΩ (whole cell) or 7–15 MΩ (outside-out) when filled with a solution containing (in mM): 140 KCl, 2 MgCl2, 10 EGTA, 1 CaCl2, 10 HEPES (pH 7.3, adjusted with KOH). External solution contained (in mM): 150 NaCl, 5 KCl, 0.5 CaCl2, 1.2 MgCl2, 10 HEPES (pH 7.3, adjusted with NaOH). The current signals were filtered at 1 kHz and digitized at a 10 kHz sampling frequency by using DigiData 1440 A.
In the outside-out patch recordings and inside-out patch recordings, the inhibitor (10–30 μM TKDC) was applied via dish perfusion. The bath level was kept as low as possible to reduce noise. Currents were recorded at a pipette potential of + 80 mV. […]
mechanical force, lipids, or pH change)? A comprehensive survey would be nice, but even evaluating block +/- one activating stimulus would be a very useful piece of information to know for those interested in using this drug.
Response: We have tested the TKDC-induced inhibition of TREK-1 in addition to the mechanical force using outside-out patch. 10 μM TKDC was applied via dish perfusion. The bath level was kept as low as possible to reduce noise. Currents were recorded at a pipette potential of +80 mV. Mechanical stimulation (-7 mmHg) for patches was applied by suction for the outside-out configuration using a pressure monitor (PM 015D, World Precision Instruments) controlled by clampex 10.6 software. As […]
The main aim of this work is to reveal an allosteric ligand-binding site in the extracellular cap of K2P channels. […]

For `CS(=O)(=O)N(CC(=O)N1CCc2ccccc2C1)c1ccc(Cl)cc1` [TKDC, N-(4-cholorphenyl)-N-(2-(3,4-dihydrosioquinolin-2(1H)-yl)-2-oxoethyl)methanesulfonamide], the “antidepressant-like effect in the acute treatment” value [1] was “fast antidepressant-like effect”, the “inhibition of TREK-1, outside-out recording” value ([2]; application to the extracellular face, 10 and 30 μM) was “consistently inhibited TREK-1” and the “inhibition of TREK-1, inside-out recording” value ([2]; application to the intracellular side, 10 and 30 μM) was “did not significantly inhibit TREK-1 activity”. The “effect on activation of TREK-1 by mechanical force” value ([2]; outside-out patch, 10 μM, -7 mmHg) was “suppressed the activation of TREK-1 by mechanical force”.
